# Patent US12012412B2, “Solid forms of pyrazolo[3,4-d]pyrimidine compounds” (Pfizer Inc., priority 2021, dated 2024)
# Columns and labels:
# Type in all cases: physicochemical
# [1] = Gravimetric analysis (TGA/EGA) of Solid Form A; conditions: heated at 10° C./minute
# Procedure: 10.9587 mg of Solid Form A was placed in a platinum crucible. This was analysed on a TA Instruments Discovery ThermoGravimetric Analyser, using a method that heated the sample from 25° C. to 300° C. at 10° C./minute with a nitrogen purge gas; alternatively, approximately 5-10 mg of material was weighed into an open aluminum pan and loaded into a simultaneous thermogravimetric/differential thermal analyzer (TG/DTA) and held at room temperature. The sample was then heated at a rate of 10° C./min from 20° C. to 400° C. during which time the change in sample weight was recorded along with any differential thermal events (DTA). Nitrogen was used as the purge gas, at a flow rate of 300 cm^3/min.
# [2] = Organic solubility: gravimetric (TGA) solubility at 25° C.
# [3] = Physical stability of Solid Form A to milling
# Procedure: Samples of Solid Form A were milled to reduce particle size.
# Milled samples of Solid Form A were remilled, and exposed at 40° C./75% RH.
# [4] = Particle size of batches of Solid Form A
# Description: Primary particles from below 100 μm to around 500 μm in size, with soft agglomerates up to several millimeters, were observed. The D[4,3] of this material was 195 μm. This material was subsequently milled, to give far fewer large particles and an overall much smaller average primary particle size, giving a D[4,3] of 49.5 μm. See Table 8 for a comparison of particle size properties of various batches.
# [5] = Aqueous solubility of Solid Form A in biologically relevant pH conditions at 25° C.; conditions: thermodynamic from solid
# [6] = Chemical and physical stability of Solid Form A (real-time and accelerated storage); conditions: for Time through which chemically and physically stable: unmilled, bulk packaging
# [7] = Solubility of Solid Form A and amorphous Compound X in various solvents at room temperature
# [8] = True density of Solid Form A
# [9] = Water sorption (dynamic vapor sorption) of Solid Form A; conditions: 25° C.
# Procedure: Solid Form A is non-hygroscopic, absorbing less than 0.05% water at 90% RH, 25° C. See FIG. 7 for the isotherm plot.
# [10] = milled samples remilled, exposed at 40° C./75% RH
compound,measurement,setting,value
"C[C@@H]1CN(Cc2ncccn2)C[C@H]1c1nc2c(cnn2C2CCOCC2)c(=O)[nH]1 [Solid Form A, 6-((3S,4S)-4-methyl-1-(pyrimidin-2-ylmethyl)pyrrolidin-3-yl)-1-(tetrahydro-2H-pyran-4-yl)-1,5-dihydro-4H-pyrazolo[3,4-d]pyrimidin-4-one]",Temperature until which no significant degradation is seen (TGA),[1],degradation until approximately 240 °C See FIG. 3.
same,solubility,[2]; Acetone,125 mmol
same,solubility,[2]; EtOAc,113 mmol
same,solubility,[2]; EtOH,160 mmol
same,solubility,[2]; H2O,89 mmol
same,solubility,[2]; Heptane,1 mmol
same,solubility,[2]; IPA,74 mmol
same,solubility,[2]; MTBE,17 mmol
same,solubility,[2]; MeCN,121 mmol
same,solubility,[2]; Toluene,132 mmol
same,solubility,"[2]; ethanol (EtOH), organic solvent or mixture, thermodynamic from solid, EtOH, read-out: Solubility",63.4 mg/mL
same,solubility,"[2]; ethyl acetate (EtOAc), organic solvent or mixture, thermodynamic from solid, EtOAc, read-out: Solubility",44.7 mg/mL
same,solubility,"[2]; organic solvent or mixture, thermodynamic from solid, Acetone, read-out: Solubility",49.4 mg/mL
same,solubility,"[2]; organic solvent or mixture, thermodynamic from solid, Heptane, read-out: Solubility",0.6 mg/mL
same,solubility,"[2]; organic solvent or mixture, thermodynamic from solid, IPA, read-out: Solubility",29.2 mg/mL
same,solubility,"[2]; organic solvent or mixture, thermodynamic from solid, MTBE, read-out: Solubility",6.7 mg/mL
same,solubility,"[2]; organic solvent or mixture, thermodynamic from solid, MeCN, read-out: Solubility",47.8 mg/mL
same,solubility,"[2]; organic solvent or mixture, thermodynamic from solid, Toluene, read-out: Solubility",52.2 mg/mL
same,solubility,"[2]; water, thermodynamic from solid, H2O, read-out: Solubility",35.3 mg/mL
same,Change in crystallinity (XRPD),[3]; [10],no sign of a decrease in crystallinity
same,Form change (XRPD),[3]; [10],no sign of form change
same,Impact of milling upon polymorphic form,[3]; milled to reduce particle size,No impact upon polymorphic form
same,"Particle size D[4, 3]",[4]; after milling,49.5 μm
same,"Particle size D[4, 3]",[4]; unmilled material,195 μm
same,solubility,"[5]; aqueous buffer, 100 mM Citrate buffer, pH 4.5, 25° C.",> 55.9 mg/mL
same,solubility,"[5]; aqueous buffer, 100 mM Citrate buffer, pH 6.0, 25° C.",> 52.2 mg/mL
same,solubility,"[5]; aqueous buffer, 100 mM Phosphate buffer, pH 6.5, 25° C.",> 53.3 mg/mL
same,solubility,"[5]; aqueous buffer, 100 mM Succinate buffer, pH 4.0, 25° C.",> 58.6 mg/mL
same,solubility,"[5]; aqueous buffer, 100 mM Succinate buffer, pH 5.5, 25° C.",> 52.8 mg/mL
same,solubility,"[5]; aqueous buffer, Phosphate buffered saline, pH 7.0, 25° C.",42.1 mg/mL
same,solubility,"[5]; aqueous buffer, Phosphate buffered saline, pH 7.4, 25° C.",27.6 mg/mL
same,solubility,"[5]; simulated gastric fluid, 0.01M HCl, pH 1.7, 25° C.",> 56.6 mg/mL
same,Stability on storage,"[6]; milled, 70° C./75% RH, 1 week",no change in stability
same,Time through which chemically and physically stable,[6]; 40° C./75% RH accelerated conditions,≥ 6 months
same,Time through which chemically and physically stable,[6]; room temperature conditions (63 months @ 15-30° C. and 21 months at 25° C./60% RH),≥ 84 months
same,Solubility (mg/ml),"[7]; 1,2-Xylene",>65.4 mg/mL
same,Solubility (mmol),"[7]; 1,2-Xylene",>165 mmol
same,Solubility (mg/ml),[7]; Acetone,49.4 mg/mL
same,Solubility (mmol),[7]; Acetone,125 mmol
same,Solubility (mmol),[7]; Chloroform,>145 mmol
same,Solubility (mmol),[7]; Dioxane,>117 mmol
same,Solubility (mg/ml),[7]; EtOAc,44.7 mg/mL
same,Solubility (mmol),[7]; EtOAc,113 mmol
same,Solubility (mmol),[7]; EtOH,160 mmol
same,Solubility (mmol),"[7]; Glyme (1,2-Dimethoxyethane)",>159 mmol
same,Solubility (mmol),[7]; H2O (Water),89 mmol
same,Solubility (mmol),[7]; H2O-EtOH (Water/EtOH),>75 mmol
same,Solubility (mg/ml),[7]; H2O-MeCN (Water/MeCN),>27 mg/mL
same,Solubility (mmol),[7]; H2O-MeCN (Water/MeCN),>68 mmol
same,Solubility (mmol),[7]; H2O-MeOH (Water/MeOH),>87 mmol
same,Solubility (mg/ml),[7]; H2O-acetone (Water/acetone),>33.3 mg/mL
same,Solubility (mmol),[7]; H2O-acetone (Water/acetone),>84 mmol
same,Solubility (mmol),[7]; Heptane,1 mmol
same,Solubility (mg/ml),[7]; IPA,29.2 mg/mL
same,Solubility (mmol),[7]; IPA,74 mmol
same,Solubility (mmol),[7]; MTBE,17 mmol
same,solubility,"[7]; MTBE, organic solvent or mixture",6.7 mg/mL
same,Solubility (mg/ml),[7]; MeCN,47.8 mg/mL
same,Solubility (mmol),[7]; MeCN,121 mmol
same,Solubility (mmol),[7]; MeOH,>181 mmol
same,Solubility (mmol),[7]; Methoxy ethanol,>188 mmol
same,Solubility (mmol),[7]; Nitromethane,>189 mmol
same,Solubility (mmol),[7]; THF,>147 mmol
same,solubility,"[7]; THF, organic solvent or mixture",> 58 mg/mL
same,Solubility (mg/ml),[7]; Toluene,52.2 mg/mL
same,Solubility (mmol),[7]; Toluene,132 mmol
same,solubility,"[7]; chloroform, organic solvent or mixture",> 57.5 mg/mL
same,solubility,"[7]; dioxane, organic solvent or mixture",> 46.3 mg/mL
same,solubility,"[7]; ethanol (EtOH), organic solvent or mixture, EtOH",63.4 mg/mL
same,solubility,"[7]; glyme (1,2-dimethoxyethane), organic solvent or mixture",> 63 mg/mL
same,solubility,"[7]; heptane, organic solvent or mixture",0.6 mg/mL
same,solubility,"[7]; methanol (MeOH), organic solvent or mixture, MeOH",> 71.4 mg/mL
same,solubility,"[7]; methoxy ethanol, organic solvent or mixture",> 74.5 mg/mL
same,solubility,"[7]; nitromethane, organic solvent or mixture",> 74.9 mg/mL
same,solubility,"[7]; water, H2O (Water)",35.3 mg/mL
same,solubility,"[7]; water/EtOH, aqueous with cosolvent or surfactant or cyclodextrin, H2O-EtOH (Water/EtOH)",> 29.8 mg/mL
same,solubility,"[7]; water/MeOH, aqueous with cosolvent or surfactant or cyclodextrin, H2O-MeOH (Water/MeOH)",> 34.2 mg/mL
same,True Density (crystal structure),[8]; from crystal structure,1.279 Mg/m^3
same,True Density (measured),[8]; measured,1.29 Mg/m^3
same,"Water Content, Desorption",[9]; 0 % RH,0 % w/w
same,"Water Content, Sorption",[9]; 0 % RH,0 % w/w
same,"Water Content, Desorption",[9]; 10 % RH,0.01 % w/w
same,"Water Content, Sorption",[9]; 10 % RH,0.01 % w/w
same,"Water Content, Desorption",[9]; 20 % RH,0.01 % w/w
same,"Water Content, Sorption",[9]; 20 % RH,0.01 % w/w
same,Hygroscopicity,[9],non-hygroscopic
same,"Water Content, Desorption",[9]; 30 % RH,0.01 % w/w
same,"Water Content, Sorption",[9]; 30 % RH,0.01 % w/w
same,"Water Content, Desorption",[9]; 40 % RH,0.02 % w/w
same,"Water Content, Sorption",[9]; 40 % RH,0.02 % w/w
same,"Water Content, Desorption",[9]; 50 % RH,0.02 % w/w
same,"Water Content, Sorption",[9]; 50 % RH,0.02 % w/w
same,"Water Content, Desorption",[9]; 60 % RH,0.02 % w/w
same,"Water Content, Sorption",[9]; 60 % RH,0.02 % w/w
same,"Water Content, Desorption",[9]; 70 % RH,0.03 % w/w
same,"Water Content, Sorption",[9]; 70 % RH,0.03 % w/w
same,"Water Content, Desorption",[9]; 80 % RH,0.03 % w/w
same,"Water Content, Sorption",[9]; 80 % RH,0.03 % w/w
same,Water absorbed,[9]; 90% RH,less than 0.05%
